Like-named read-outs stand apart in the source and are kept apart here.
Experiments:
PfCRT^Ecu1110 [1] = target: T1, PfCRT^Ecu1110 (Plasmodium falciparum, UniProt Q9N623, A220S/I356L/K76T/N326D); experiment: [3H]CQ uptake into Xenopus oocytes, cis-inhibition by unlabelled solute; assay type: cell-based; details: read-out: [3H]CQ transport (% PfCRTEcu1110 control), cis-inhibition, PfCRTEcu1110; SEM
Summary of the method: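 PfCRT-expressing and control oocytes: ND96 pH 5.5 → 1.5 h at 27.5 °C → ice-cold ND96 wash → 10% SDS lysis → scintillation count.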

non-expressing oocytes = assay type: cell-based, Xenopus laevis; details: total [3H]CQ transport; for Uptake of [3H]CQ (% non-expressing oocyte control), trans-stimulation: non-expressing oocytes, normalised to the oocyte type control; for Uptake of [3H]CQ (% PfCRTDd2 control), trans-stimulation, non-expressing oocytes: mean ± SEM, SEM
Summary of the method: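 Oocytes (ten per treatment, ≥4 independent frogs/days) were preloaded by injecting VF-6 in 25 nL ND96 at pH 5.0, 5.5, 6.0 or 7.0, or Na^+-free choline buffer, then uptake run 1.5 h, 27.5 °C, ND96 pH 5.5 by default. Internal concentrations assumed ~400 nL oocyte volume.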

PfCRT^3D7 = PfCRT^3D7 (Plasmodium falciparum, UniProt Q8IBZ9); experiment: cell-based; assay type: cell-based
Summary of the method: (§1)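 Transport measured in Xenopus oocytes expressing the transporters, 1.5 h at 27.5 °C in ND96 pH 5.5 unless noted. For trans-stimulation, VF-6 injected in 25 nL ND96 at pH 5.0–7.0 or Na^+-free (choline) buffer; intracellular levels based on ~400 nL oocyte volume. Ten oocytes per treatment, ≥4 experiments.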

PfCRT^Dd2 = PfCRT^Dd2 (Plasmodium falciparum, UniProt Q9N623, A220S/I356T/K76T/M74I/N326S/N75E/Q271E/R371I); experiment: cell-based; assay type: cell-based; details: […]; for activity at 45000 µM: [test solute]i = 45 mM (30 mM for some solutes due to solubility)
Summary of the method: as §1

PfCRT^Ecu1110 [2] = target: T1, PfCRT^Ecu1110; experiment: cell-based; assay type: cell-based; details: […]
Summary of the method: as §1

PfNT1 = target: T2, PfNT1 (Plasmodium falciparum, UniProt Q8IDM6); experiment: cell-based; assay type: cell-based; details: for activity at 5000 µM: total [3H]CQ transport
T2 construct: expressed in transfected cells; host or cells: Xenopus laevis oocytes (stage V-VI), cRNA-injected
Summary of the method: as §1

PfCRT [3] = experiment: Test of solutes as potential co-substrates for influx of VF-6 via PfCRT into the oocyte; assay type: cell-based, Plasmodium falciparum; design: key: X: Compounds that have been tested as potential co-substrates but are not required for influx of VF-6 via PfCRT into the oocyte; details: X = tested
PfCRT [4] = experiment: Potential co-substrates tested for influx of VF-6 via PfCRT into the oocyte; assay type: cell-based, Plasmodium falciparum; design: key: X: Compounds that have been tested as potential co-substrates but are not required for influx of VF-6 via PfCRT into the oocyte

Chain of PfCRT^3D7 (Q8IBZ9 59-398): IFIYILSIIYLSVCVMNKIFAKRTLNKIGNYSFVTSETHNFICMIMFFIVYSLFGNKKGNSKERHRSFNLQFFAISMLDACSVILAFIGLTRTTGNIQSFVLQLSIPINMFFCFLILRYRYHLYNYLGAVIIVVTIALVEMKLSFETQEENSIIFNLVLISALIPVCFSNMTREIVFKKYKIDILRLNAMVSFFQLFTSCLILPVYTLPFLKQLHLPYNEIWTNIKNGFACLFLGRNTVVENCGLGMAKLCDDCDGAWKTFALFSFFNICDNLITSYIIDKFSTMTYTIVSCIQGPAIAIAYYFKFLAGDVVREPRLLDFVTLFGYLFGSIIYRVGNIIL
T2 sequence (Q8IDM6 whole entry): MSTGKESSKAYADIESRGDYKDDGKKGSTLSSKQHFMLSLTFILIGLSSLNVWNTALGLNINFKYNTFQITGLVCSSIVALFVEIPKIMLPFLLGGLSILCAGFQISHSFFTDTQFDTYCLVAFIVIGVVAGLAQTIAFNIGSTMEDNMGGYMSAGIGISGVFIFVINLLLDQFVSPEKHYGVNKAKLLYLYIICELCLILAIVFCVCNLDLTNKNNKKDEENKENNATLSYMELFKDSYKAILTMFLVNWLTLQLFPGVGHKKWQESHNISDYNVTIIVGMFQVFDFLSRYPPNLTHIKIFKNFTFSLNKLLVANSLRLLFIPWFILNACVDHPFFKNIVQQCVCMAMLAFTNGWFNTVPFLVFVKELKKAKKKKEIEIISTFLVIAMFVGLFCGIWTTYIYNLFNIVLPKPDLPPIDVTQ
T1 sequence (Q9N623 whole entry A220S/I356L/K76T/N326D): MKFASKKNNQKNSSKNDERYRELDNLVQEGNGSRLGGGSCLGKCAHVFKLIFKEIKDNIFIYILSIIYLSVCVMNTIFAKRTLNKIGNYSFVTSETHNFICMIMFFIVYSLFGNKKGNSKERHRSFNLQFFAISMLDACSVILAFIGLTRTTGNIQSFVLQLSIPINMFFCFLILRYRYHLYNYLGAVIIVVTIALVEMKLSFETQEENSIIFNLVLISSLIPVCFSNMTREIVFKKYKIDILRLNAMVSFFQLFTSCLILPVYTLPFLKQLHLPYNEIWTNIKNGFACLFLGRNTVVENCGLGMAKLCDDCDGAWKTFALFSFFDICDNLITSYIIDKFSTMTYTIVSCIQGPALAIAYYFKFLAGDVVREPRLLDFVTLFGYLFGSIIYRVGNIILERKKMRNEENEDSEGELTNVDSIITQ
Chain of PfCRT^Dd2 (Q9N623 whole entry A220S/I356T/K76T/M74I/N326S/N75E/Q271E/R371I): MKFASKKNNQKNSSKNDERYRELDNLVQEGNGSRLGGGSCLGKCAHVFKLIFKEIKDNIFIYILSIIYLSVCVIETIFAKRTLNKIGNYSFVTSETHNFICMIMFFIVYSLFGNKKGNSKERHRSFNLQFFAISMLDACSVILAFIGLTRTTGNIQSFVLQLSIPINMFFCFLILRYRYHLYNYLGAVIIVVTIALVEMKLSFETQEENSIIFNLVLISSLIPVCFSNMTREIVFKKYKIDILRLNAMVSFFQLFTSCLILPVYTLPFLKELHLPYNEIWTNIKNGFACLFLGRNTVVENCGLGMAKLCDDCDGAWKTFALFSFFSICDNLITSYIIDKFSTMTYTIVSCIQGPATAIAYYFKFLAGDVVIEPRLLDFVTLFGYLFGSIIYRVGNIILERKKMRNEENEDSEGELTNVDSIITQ

SMILES: N[C@@H](Cc1c[nH]c2ccccc12)C(=O)O [L-tryptophan]
- inhibition at 500 µM (PfCRT^Ecu1110 [1]): 29 ± 1.3%
- inhibition at 1000 µM (PfCRT^Ecu1110 [1]): 29 ± 0.3%
- inhibition at 2000 µM (PfCRT^Ecu1110 [1]): 30 ± 1.4%
- Uptake of [3H]CQ (% non-expressing oocyte control), trans-stimulation (non-expressing oocytes; [test solute]i = 5 mM): 98 ± 2.5 % non-expressing oocyte control
- Uptake of [3H]CQ (% non-expressing oocyte control), trans-stimulation (non-expressing oocytes; [test solute]i = 45 mM (30 mM for some solutes due to solubility)): 99 ± 2.1 % non-expressing oocyte control
- Uptake of [3H]CQ (% PfCRTDd2 control), trans-stimulation, non-expressing oocytes (non-expressing oocytes; [test solute]i = 5 mM (intracellular)): 3.0 ± 0.04 % PfCRTDd2 control
- Uptake of [3H]CQ (% PfCRTDd2 control), trans-stimulation, non-expressing oocytes (non-expressing oocytes; [test solute]i = 45 mM (intracellular; 30 mM for some solutes due to solubility)): 3.2 ± 0.01 % PfCRTDd2 control
- activity at 5000 µM (PfCRT^3D7; PfCRT3D7 oocytes, [test solute]i = 5 mM, total [3H]CQ transport, normalised to the oocyte type control, read-out: Uptake of [3H]CQ (% PfCRT3D7 control), trans-stimulation): 100 ± 3.5%
- [3H]CQ transport (% PfCRT3D7 control), trans-stimulation, PfCRT3D7 (PfCRT^3D7; SEM): 0.3 ± 0.02 % PfCRT3D7 control
- activity at 5000 µM (PfCRT^3D7; [test solute]i = 5 mM (intracellular), PfCRT3D7 oocytes, normalised to oocyte type control, read-out: PfCRT-mediated [3H]CQ transport, trans-stimulation (% PfCRT3D7 control)): 98 ± 4.7%
- activity at 45000 µM (PfCRT^3D7; SEM, read-out: Uptake of [3H]CQ (% PfCRTDd2 control), trans-stimulation, PfCRT3D7): 3.4 ± 0.06%
- activity at 45000 µM (PfCRT^3D7; read-out: PfCRT-mediated [3H]CQ transport, trans-stimulation (% PfCRT3D7 control)): 99 ± 3.4%
- activity at 45000 µM (PfCRT^3D7; read-out: Uptake of [3H]CQ (% PfCRT3D7 control), trans-stimulation): 101 ± 2.5%
- activity at 5000 µM (PfCRT^3D7; total [3H]CQ transport, [test solute]i = 5 mM (intracellular), mean ± SEM, SEM, read-out: Uptake of [3H]CQ (% PfCRTDd2 control), trans-stimulation, PfCRT3D7): 3.3 ± 0.06%
- activity at 5000 µM (PfCRT^Dd2; pH 5.5, read-out: PfCRT-mediated [3H]CQ transport, trans-stimulation (% PfCRTDd2 control), [test solute]i = 5 mM (intracellular), PfCRTDd2 oocytes, normalised to oocyte type control): 98 ± 1.6%
- activity at 5000 µM (PfCRT^Dd2; pH 5.5, read-out: Uptake of [3H]CQ (% PfCRTDd2 control), trans-stimulation, PfCRTDd2, total [3H]CQ transport, [test solute]i = 5 mM (intracellular), mean ± SEM, SEM): 100 ± 2.2%
- activity at 5000 µM (PfCRT^Dd2; pH 5.5, read-out: Uptake of [3H]CQ (% PfCRTDd2 control), trans-stimulation, PfCRTDd2 oocytes, [test solute]i = 5 mM, total [3H]CQ transport, normalised to the oocyte type control): 100 ± 2.2%
- activity at 45000 µM (PfCRT^Dd2; pH 5.5, read-out: Uptake of [3H]CQ (% PfCRTDd2 control), trans-stimulation, PfCRTDd2 oocytes, total [3H]CQ transport, normalised to the oocyte type control): 101 ± 2.4%
- activity at 5000 µM (PfCRT^Dd2; pH 5.5, read-out: [3H]CQ transport (% PfCRTDd2 control), trans-stimulation, PfCRTDd2, trans-stimulation, [test solute]i = 5 mM (injected), PfCRT-mediated component (background subtracted), mean ± SEM, SEM): 98 ± 1.6%
- activity at 45000 µM (PfCRT^Dd2; pH 5.5, read-out: [3H]CQ transport (% PfCRTDd2 control), trans-stimulation, PfCRTDd2, trans-stimulation, PfCRT-mediated component (background subtracted), mean ± SEM, SEM): 99 ± 1.9%
- activity at 5000 µM (PfCRT^Ecu1110 [2]; pH 5.5, read-out: PfCRT-mediated [3H]CQ transport, trans-stimulation (% PfCRTEcu1110 control), [test solute]i = 5 mM (intracellular), PfCRTEcu1110 oocytes, normalised to oocyte type control): 97 ± 2.2%
- activity at 5000 µM (PfCRT^Ecu1110 [2]; pH 5.5, read-out: Uptake of [3H]CQ (% PfCRTEcu1110 control), trans-stimulation, PfCRTEcu1110 oocytes, [test solute]i = 5 mM, total [3H]CQ transport, normalised to the oocyte type control): 99 ± 3.1%
- activity at 45000 µM (PfCRT^Ecu1110 [2]; pH 5.5, read-out: Uptake of [3H]CQ (% PfCRTEcu1110 control), trans-stimulation, PfCRTEcu1110 oocytes, [test solute]i = 45 mM (30 mM for some solutes due to solubility), total [3H]CQ transport, normalised to the oocyte type control): 99 ± 3.5%
- activity at 5000 µM (PfCRT^Ecu1110 [2]; read-out: Uptake of [3H]CQ (% PfCRTDd2 control), trans-stimulation, PfCRTEcu1110, total [3H]CQ transport, [test solute]i = 5 mM (intracellular), mean ± SEM, SEM): 35 ± 1.9%
- activity at 45000 µM (PfCRT^Ecu1110 [2]; read-out: Uptake of [3H]CQ (% PfCRTDd2 control), trans-stimulation, PfCRTEcu1110, total [3H]CQ transport, [test solute]i = 45 mM (intracellular; 30 mM for some solutes due to solubility), mean ± SEM, SEM): 35 ± 2.1%
- activity at 5000 µM (PfNT1; PfNT1 oocytes, [test solute]i = 5 mM, normalised to the oocyte type control, read-out: Uptake of [3H]CQ (% PfNT1 control), trans-stimulation): 101 ± 3.9%
- activity at 45000 µM (PfNT1; SEM, read-out: Uptake of [3H]CQ (% PfCRTDd2 control), trans-stimulation, PfNT1): 2.1 ± 0.03%
- activity at 45000 µM (PfNT1; read-out: Uptake of [3H]CQ (% PfNT1 control), trans-stimulation): 98 ± 3.2%
- activity at 5000 µM (PfNT1; [test solute]i = 5 mM (intracellular), mean ± SEM, SEM, read-out: Uptake of [3H]CQ (% PfCRTDd2 control), trans-stimulation, PfNT1): 2.7 ± 0.05%
- Tested as potential co-substrate but not required for influx of VF-6 via PfCRT into the oocyte (PfCRT [3]): X
- Tested as potential co-substrate but not required for influx of VF-6 via PfCRT into the oocyte (PfCRT [4]): X

Reference: PMC7413254 (Nature Communications, 2020)
